{
  "source": "patent US7038036B2",
  "about": "“Oligonucleotides labeled with stable isotopes and a method for detecting the same” (Taiyo Nippon Sanso Corporation, priority 1999, dated 2006)",
  "experiment": "NMR detection of 13C/15N-labeled RNA in mouse serum sampled three hours after inoculation into the tail",
  "assay_type": "in vivo, mice (BALB/cAnNCr)",
  "settings": "for signals derived from base pairs, 500 MHz 1H-NMR spectra of exchangeable protons (imino protons) / signals derived from nucleic acid bases, 500 MHz 1H-NMR spectra of non-exchangeable protons (9 to 6.5 ppm): 25° C.",
  "experimental": "Four female SPF/VAF mice (BALB/cAnNCr, 8 weeks old, No. 1 to No. 4) supplied by Charles River Japan, Inc. were used for the experiment.\nThe abovementioned oligonucleotide (5 mg) was dissolved in 120 μl of a physiological saline solution to prepare four […] samples. Two samples were administered without a drug delivery system. The abovementioned histone subunit mixture was added to the remaining two samples to form a complex. • Sample 1: ^13C—^15N-labeled RNA (inoculated into and sampled from No. 1 mouse) • Sample 2: ^13C—^15N-labeled RNA (inoculated into and sampled from No. 2 mouse) • Sample 3: the complex of ^13C—^15N-labeled RNA and the drug delivery system (inoculated into and sampled from No. 3 mouse) • Sample 4: the complex of ^13C—^15N-labeled RNA and the drug delivery system (inoculated into and sampled from No. 4 mouse)\nEach sample solution (100 μl), which was adjusted to 62.5 mg/kg, was inoculated into the tail of the abovementioned mice. Three hours after the inoculation, the mice were anesthetized with ether and about 1 ml of whole blood was sampled from the heart. This whole blood was allowed to stand at room temperature for 30 minutes, and then centrifuged at 1,500 rpm at room temperature for 15 minutes. Supernatant serum obtained by the centrifugation was subjected to NMR measurement as follows. Heavy water (20 μl) was added to the samples (400 μl each) obtained by the abovementioned centrifugation, and the measurement of NMR spectra was carried out at 25° C. A DRX-500 NMR spectrometer (BRUKER) was used for the measurement. Pre-saturation was carried out for the measurement of non-exchangeable protons and jump-and-return pulses were used for the measurement of exchangeable imino proton spectra.",
  "key": {"[1]": {"settings": "mouse serum, three hours after inoculation, 62.5 mg/kg, 62.5 mg/kg"}, "[2]": {"settings": "mouse serum, three hours after inoculation, 62.5 mg/kg, listed as Sample 2, 62.5 mg/kg"}},
  "note": "“Also recorded” adds a separate entry of the source.",
  "data": [
    {"substance": "Sample 1: oligonucleotide comprising 43 bases shown in SEQ ID No. 1, RNA labeled with 13C and 15N, administered without a drug delivery system (antisense GGGAGAGGGCAACCUGACCUGUUAUCAUCGCAAGAAGCUUCCG; RNA, phosphodiester; uniformly 13C/15N isotope-labeled ribonucleotides)", "values": [
      {"measurement": "detection of the oligonucleotide by NMR", "setting": "complex with the drug delivery system (histone subunit mixture) formed, mouse serum, three hours after inoculation", "value": "entire length of the oligonucleotide was detected"},
      {"measurement": "13C-1H HMQC spectra of non-exchangeable protons", "setting": "mouse serum, three hours after inoculation, 62.5 mg/kg", "value": "Only noise, and no spectrum derived from RNA"},
      {"measurement": "signals derived from base pairs, 500 MHz 1H-NMR spectra of exchangeable protons (imino protons)", "setting": "[1]", "value": "Absolutely no signal; also recorded: barely detected"},
      {"measurement": "signals derived from nucleic acid bases, 500 MHz 1H-NMR spectra of non-exchangeable protons (9 to 6.5 ppm)", "setting": "[1]", "value": "only extremely weak signals; also recorded: barely detected"},
      {"measurement": "signals derived from base pairs, 500 MHz 1H-NMR spectra of exchangeable protons (imino protons)", "setting": "[2]", "value": "Absolutely no signal; also recorded: barely detected"},
      {"measurement": "signals derived from nucleic acid bases, 500 MHz 1H-NMR spectra of non-exchangeable protons (9 to 6.5 ppm)", "setting": "[2]", "value": "only extremely weak signals; also recorded: barely detected"},
      {"measurement": "detection of the oligonucleotide by NMR", "setting": "no complex with the drug delivery system formed, mouse serum, three hours after inoculation", "value": "barely detected"},
      {"measurement": "time the antisense chain existed in the blood", "setting": "when the drug delivery system was used, mice", "value": "up to 3 hours"},
      {"measurement": "decomposition of the RNA present in the blood", "setting": "when the drug delivery system was used, mice, three hours after inoculation", "value": "did not undergo partial decomposition"}
    ]}
  ]
}
